Here are results for two compounds from patent EP0548441A1, “Endothelin antagonists” (Japat Ltd, priority 1991, dated 1993).

Where a SMILES comes first, the peptide text is derived from it.

Experiment [1] concerns the target T1, ETA receptor (Sus scrofa, UniProt Q29010).
T1 sequence (Q29010 21-427): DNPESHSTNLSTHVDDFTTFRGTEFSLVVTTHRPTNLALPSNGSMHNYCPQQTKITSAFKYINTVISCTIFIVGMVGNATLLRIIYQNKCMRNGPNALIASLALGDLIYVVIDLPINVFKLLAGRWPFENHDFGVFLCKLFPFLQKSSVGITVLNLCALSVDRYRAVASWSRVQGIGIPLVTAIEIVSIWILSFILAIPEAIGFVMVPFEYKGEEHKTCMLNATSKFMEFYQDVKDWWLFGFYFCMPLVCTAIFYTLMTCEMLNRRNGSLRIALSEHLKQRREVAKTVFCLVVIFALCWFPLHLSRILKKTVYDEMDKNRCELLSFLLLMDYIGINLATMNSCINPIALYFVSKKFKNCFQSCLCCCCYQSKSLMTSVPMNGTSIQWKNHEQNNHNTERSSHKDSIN
Procedure: Porcine lung was homogenized with a Kinematica Polytron homogenizer (Lucern, Switzerland) three times at top speed for each 30 sec in 9 volumes of ice-cold 0.25 M sucrose solution containing 20 mM Tris-HCl (pH 7.4), 0.2 mM phenylmethylsulfonyl fluoride, 1 µM leupeptin, 1 µM pepstatin, 0.1 mM EDTA, and 0.5 mM EGTA. After centrifugation of the homogenate at 1,000 x g for 10 min at 4°C, the supernatant was centrifuged again at 20,000 x g for 20 min. The resulting pellet was washed three times as described above and used as a membrane source. The membrane was stocked in aliquots at -80°C until use.
ET-3 in the absence and presence of various amounts of nonlabeled ligands in a total volume of 1 ml of 20 mM HEPES (pH 7), 145 mM NaCl, 5 mM KCl, 3 mM MgCl₂ , 1 mM EGTA, 1 mg/ml bovine serum albumin, and 0.2 mg/ml bacitracin. […] The radioactivity in membrane pellet was measured in a gamma counter. Nonspecific binding was defined as membrane-associated radioactivity in the presence of saturating concentrations of ET(l00 nM). […] Total binding was always less than l5% of the total radioactivity added.
The specific binding site for ETs in the plasma membrane of porcine lung was detected. The binding to the ETA receptor was determined with [¹²⁵I]ET-1 in the presence of 1 nM unlabeled ET-3 and the binding to the ETB receptor was determined with [¹²⁵I]ET-3 alone. […]

In experiment [2] the test system is guinea pig trachea. The experiment can be described thus: Inhibition of the contraction of guinea pig trachea. It is filed as cell-based. The settings on record: guinea pig tracheal rings. How it is done:
The contraction of the guinea pig trachea was measured according to Br. J. Pharmacol. 98, 483, l989, by the following procedure.
Male guinea pigs weighing 350 - 500 g were stunned and bled. The trachea was rapidly removed and placed in an oxygenated (95% O₂ , 5% CO₂) Krebs solution. After removal of the adherent fat and connective tissues, the trachea was cut into 2 mm wide rings. The two rings were tied together, end to end, placed in a 30 ml organ bath and connected to an isometric force-transducer under an initial tension of 1.0 g.

A word on the Ki: it is a measure of affinity in units of concentration, obtained from inhibition or displacement.

In experiment [1], `CC[C@H](C)[C@H](NC(=O)[C@H](CC(=O)O)NC(=O)[C@H](CC(C)C)NC(=O)[C@H](Cc1c[nH]cn1)NC(=O)[C@H](C)NC(=O)[C@H](Cc1ccccc1)NC(=O)[C@H](Cc1ccc(O)cc1)NC(=O)[C@@H](NC(=O)[C@H](C)NC(=O)[C@H](CCC(=O)O)NC(=O)[C@H](CCCCN)NC(=O)[C@H](CC(=O)O)NC(C)=O)C(C)C)C(=O)N[C@H](C(=O)N[C@@H](Cc1c[nH]c2ccccc12)C(=O)O)[C@@H](C)CC` [Compound (II)] (Ac-DKEAVYFAHLDIIW-OH) gave a Ki of 450 nM. The “inhibition of ET-3-induced contraction of the trachea” value in experiment [2] (100 nM, added 5 min prior to the addition of ET-3) is “significantly inhibited”.
Regarding `CC[C@H](C)[C@H](NC(=O)[C@H](CC(=O)O)NC(=O)[C@H](CC(C)C)NC(=O)[C@H](Cc1c[nH]cn1)NC(=O)[C@@H]1CSSC[C@H](N)C(=O)N[C@@H]([C@@H](C)O)C(=O)N[C@H]2CSSC[C@H](NC(=O)[C@H](CCC(=O)O)NC(=O)[C@H](CCCCN)NC(=O)[C@H](CC(=O)O)NC(=O)[C@H](CCCCN)NC(=O)[C@H](Cc3ccc(O)cc3)NC(=O)[C@H]([C@@H](C)O)NC(=O)[C@H](Cc3ccccc3)NC2=O)C(=O)N[C@@H](C(C)C)C(=O)N[C@@H](Cc2ccc(O)cc2)C(=O)N[C@@H](Cc2ccc(O)cc2)C(=O)N1)C(=O)N[C@H](C(=O)N[C@@H](Cc1c[nH]c2ccccc12)C(=O)O)[C@@H](C)CC` [ET-3, endothelin-3, reference compound], in experiment [2] (organ bath, high KCl (60 mM) as reference standard), the “contraction of the trachea” value is on record as “caused a contraction of the trachea in a concentration dependent manner”.
